Data from US20230023559A1, “ARYLMETHYLENE HETEROCYCLIC COMPOUNDS AS KV1.3 POTASSIUM SHAKER CHANNEL BLOCKERS” (D. E. Shaw Research, LLC, priority 2019, published 2023).

Target: T1, Kv1.3 potassium channel (Homo sapiens, UniProt P22001)
T1 construct: expressed in transfected cells
Assay: Kv1.3 potassium channel blocker activity, automated whole-cell patch clamp (Patchliner)
Assay type: cell-based
Settings: CHO-K1 cells stably expressing Kv1.3; whole cell current inhibition; read-out: Kv1.3_IC50
Protocol: The assay described below is used to evaluate the disclosed compound's activities as Kv1.3 potassium channel blockers.
CHO-K1 cells stably expressing Kv1.3 were grown in DMEM containing 10% heat-inactivated FBS, 1 mM Sodium Pyruvate, 2 mM L-Glutamine and G418 (500 μg/ml).
All compounds were dissolved in DMSO at 30 mM.
The currents were evoked by applying 100 ms depolarizing pulses from −90 mV (holding potential) to +40 mV were applied with 0.1 Hz frequency. […] 10 second breaks were used between pulse trains (see Table A below).
Data were sampled at 10 kHz without filtering. Passive leak currents were subtracted online using a P/4 procedure (HEKA Elektronik Dr. Schulze GmbH). […] Total compound incubation time before the next pulse train was not longer than 10 seconds. Peak current inhibition was observed during compound equilibration.

T1 sequence (P22001 whole entry): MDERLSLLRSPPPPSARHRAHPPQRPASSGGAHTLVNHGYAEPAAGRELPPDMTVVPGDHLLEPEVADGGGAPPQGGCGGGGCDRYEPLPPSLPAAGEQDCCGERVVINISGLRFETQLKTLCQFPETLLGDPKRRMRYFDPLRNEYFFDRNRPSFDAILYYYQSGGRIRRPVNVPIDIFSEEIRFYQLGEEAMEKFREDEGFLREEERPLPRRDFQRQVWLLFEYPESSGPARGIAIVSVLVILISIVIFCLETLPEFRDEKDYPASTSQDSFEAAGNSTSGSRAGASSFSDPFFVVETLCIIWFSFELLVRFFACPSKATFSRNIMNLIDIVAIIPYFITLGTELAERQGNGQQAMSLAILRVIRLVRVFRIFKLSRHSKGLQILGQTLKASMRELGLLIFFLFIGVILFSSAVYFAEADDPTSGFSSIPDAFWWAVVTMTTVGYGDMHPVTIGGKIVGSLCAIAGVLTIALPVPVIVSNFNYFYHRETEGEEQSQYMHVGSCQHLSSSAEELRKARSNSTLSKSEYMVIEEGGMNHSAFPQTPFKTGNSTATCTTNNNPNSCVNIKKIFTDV

| IC50 | SMILES |
| --- | --- |
| < 10 µM | CN[C@@H](c1cc(Cl)c(Cl)cc1O)C1CCN(C(=O)[C@H](O)CO)CC1 [Compound 337, (2R)-1-[4-[(R)-(4,5-dichloro-2-hydroxyphenyl)(methylamino)methyl]piperidin-1-yl]-2,3-dihydroxypropan-1-one] |
| < 10 µM | Cc1ccc(S(=O)(=O)N2CCC(C(N)c3cc(Cl)c(Cl)cc3O)CC2)cc1 (centres unmarked) [Compound 35, 2-(amino(1-tosylpiperidin-4-yl)methyl)-4,5-dichlorophenol] |
| < 30 µM | N[C@@H](c1cc(Cl)c(C2CCC2)cc1O)C1CCN(C(=O)[C@H](O)CO)CC1 [Compound 288, (2R)-1-[4-[(R)-amino(5-chloro-4-cyclobutyl-2-hydroxyphenyl)methyl]piperidin-1-yl]-2,3-dihydroxypropan-1-one Trifluoroacetic Acid] |
| < 0.5 µM | Cc1cc(O)c([C@H](N)C2CCN(C(=O)c3ccc4[nH]c(=O)[nH]c4c3)CC2)cc1Cl [Compound 256, 5-[4-[(R)-amino (5-chloro-2-hydroxy-4-methylphenyl)methyl]piperidine-1-carbonyl]-1,3-dihydro-1,3-benzodiazol-2-one trifluoroacetic acid] |
| < 0.5 µM | Cc1cc(O)c([C@H](N)C2CCN(C(=O)c3ccc4c(c3)CC(=O)N4)CC2)cc1Cl [Compound 267, 5-[4-[(R)-amino (5-chloro-2-hydroxy-4-methylphenyl)methyl]piperidine-1-carbonyl]-1,3-dihydroindol-2-one trifluoroacetic acid] |
| < 10 µM | NC(=O)C(c1cc(Cl)c(Cl)cc1O)C1CCNCC1 (centres unmarked) [Compound 18, 2-(4,5-dichloro-2-hydroxyphenyl)-2-(piperidin-4-yl)acetamide] |
| < 10 µM | CS(=O)(=O)NC(c1cc(Cl)c(Cl)cc1O)C1CCNCC1 (centres unmarked) [Compound 12, N-((4,5-dichloro-2-hydroxyphenyl)(piperidin-4-yl)methyl)methanesulfonamide] |
| < 10 µM | O=C([C@H]1CCNC1)N1CCC[C@@H]([C@H](O)c2c(O)ccc(Cl)c2Cl)CC1 (single isomer, unassigned; isomer 1) [Compound 322] |
| < 10 µM | Cc1cc(O)c([C@H](N)C2CCN(C(=O)c3ccc4[nH]c(=O)oc4c3)CC2)cc1Cl [Compound 271, 6-[4-[(R)-amino(5-chloro-2-hydroxy-4-methylphenyl)methyl]piperidine-1-carbonyl]-3H-1,3-benzoxazol-2-one] |
| < 10 µM | CN(C)C(=O)CN1CCC(C(N)c2cc(Cl)c(Cl)cc2O)CC1 (centres unmarked) [Compound 55, 2-[4-[amino(4,5-dichloro-2-hydroxyphenyl)methyl]piperidin-1-yl]-N,N-dimethylacetamide] |
| < 0.5 µM | N[C@@H](c1c(O)cc(Cl)c(Cl)c1F)C1CCN(C(=O)c2c[nH]c(=O)c(Cl)c2)CC1 [Compound 266, 5-[4-[(R)-amino(3,4-dichloro-2-fluoro-6-hydroxyphenyl)methyl]piperidine-1-carbonyl]-3-chloro-1H-pyridin-2-one Trifluoroacetic Acid] |
| < 0.5 µM | N[C@@H](c1cc(Cl)c(Cl)cc1O)C1CCN(C(=O)c2c[nH]c(=O)[nH]2)CC1 [Compound 254, 4-[4-[(R)-amino(4,5-dichloro-2-hydroxyphenyl)methyl]piperidine-1-carbonyl]-1,3-dihydroimidazol-2-one trifluoro-acetic acid] |
| < 10 µM | O=C1CCCN1C(c1cc(Cl)c(Cl)cc1O)C1CCNCC1 (centres unmarked) [Compound 29, 1-((4,5-dichloro-2-hydroxyphenyl)(piperidin-4-yl)methyl)pyrrolidin-2-one Trifluoroacetic Acid] |
| < 10 µM | NC(c1cc(Cl)c(Cl)c(F)c1O)C1CCN(C(=O)[C@H](O)CO)CC1 (stereo partly drawn) [Compound 290, (2R)-1-[4-[amino(4,5-dichloro-3-fluoro-2-hydroxyphenyl)methyl]piperidin-1-yl]-2,3-dihydroxypropan-1-one Trifluoroacetic Acid] |
| < 10 µM | CN1CCC(C(NC(=O)C(F)(F)F)c2cc(Cl)c(Cl)cc2O)CC1 (centres unmarked) [Compound 14, N-[(4,5-dichloro-2-hydroxyphenyl)(1-methylpiperidin-4-yl)methyl]-2,2,2-trifluoroacetamide] |
| < 10 µM | CC(C)C[C@H](N)C(=O)N1CCC([C@@H](N)c2cc(Cl)c(Cl)cc2O)CC1 [Compound 93, (S)-2-amino-1-(4-((R)-amino (4,5-dichloro-2-hydroxyphenyl)methyl)piperidin-1-yl)-4-methylpentan-1-one] |
| < 10 µM | N#Cc1cc(O)c([C@H](N)C2CCN(C(=O)[C@H](O)CO)CC2)cc1Cl [Compound 286, 4-[(R)-amino([1-[(2R)-2,3-dihydroxypropanoyl]piperidin-4-yl])methyl]-2-chloro-5-hydroxybenzonitrile Trifluoroacetic Acid] |
| < 10 µM | Oc1cc(Cl)c(Cl)cc1C(C1CCNCC1)n1cccn1 (centres unmarked) [Compound 13, 4,5-dichloro-2-[piperidin-4-yl(1H-pyrazol-1-yl)methyl]phenol] |

| IC50 | SMILES |
| --- | --- |
| < 10 µM | N[C@H](c1c(O)cc(Cl)c(Cl)c1F)C1CCN(C(=O)[C@H](O)CO)CC1 [Compound 287, (R)-1-(4-((S)-amino(3,4-dichloro-2-fluoro-6-hydroxyphenyl)methyl)piperidin-1-yl)-2,3-dihydroxypropan-1-one] |
| < 0.5 µM | O=S(=O)([C@H]1CCNC1)N1CCC([C@@H](O)c2cc(Cl)c(Cl)cc2O)CC1 (single isomer, unassigned; isomer 1) [Compound 124, 4,5-dichloro-2-(hydroxy(1-(pyrrolidin-3-ylsulfonyl)piperidin-4-yl)methyl)phenol Isomer 1] |
| < 10 µM | CC(O)(c1cc(Cl)c(Cl)cc1O)C1CCNCC1 (centres unmarked) [Compound 3, 4,5-dichloro-2-[1-hydroxy-1-(piperidin-4-yl)ethyl]phenol] |
| < 30 µM | CCNC(c1cc(Cl)c(Cl)cc1O)C1CCN(C(=O)[C@H](O)CO)CC1 (stereo partly drawn) [Compound 202, (2R)-1-[4-[(4,5-dichloro-2-hydroxyphenyl)(ethylamino)methyl]piperidin-1-yl]-2,3-dihydroxypropan-1-one Trifluoroacetic Acid] |
| < 0.5 µM | Cc1cc(O)c([C@H](N)C2CCN(C(=O)c3ccc4c(c3)OCC(=O)N4)CC2)cc1Cl [Compound 265, 7-[4-[(R)-amino(5-chloro-2-hydroxy-4-methylphenyl)methyl]piperidine-1-carbonyl]-2,4-dihydro-1,4-benzoxazin-3-one trifluoroacetic acid] |
| < 30 µM | N[C@@H](c1cc(Cl)c(C2=CCCC2)cc1O)C1CCN(C(=O)[C@H](O)CO)CC1 [Compound 318, (2R)-1-[4-[(R)-amino[5-chloro-4-(cyclopent-1-en-1-yl)-2-hydroxyphenyl]methyl]piperidin-1-yl]-2,3-dihydroxypropan-1-one Trifluoroacetic Acid] |
| < 10 µM | N[C@@H](c1c(O)ccc(Cl)c1Cl)C1CCN(C(=O)[C@H](O)CO)CC1 [Compound 187, (2R)-1-[4-[(R)-amino(2,3-dichloro-6-hydroxyphenyl)methyl]piperidin-1-yl]-2,3-dihydroxypropan-1-one Trifluoroacetic Acid] |
| < 10 µM | CN[C@H](c1cc(Cl)c(Cl)cc1O)C1CCN(C(=O)[C@H](O)CO)CC1 (single isomer, unassigned) [Compound 336] |
| < 0.5 µM | N[C@@H](c1cc(Cl)c(C(F)F)cc1O)C1CCN(C(=O)[C@H](O)CO)CC1 [Compound 227, (2R)-1-[4-[(R)-amino[5-chloro-4-(difluoromethyl)-2-hydroxyphenyl]methyl]piperidin-1-yl]-2,3-dihydroxypropan-1-one Trifluoroacetic Acid] |
| < 10 µM | CC1(C(N)c2cc(Cl)c(Cl)cc2O)CCN(C(=O)[C@H](O)CO)CC1 (stereo partly drawn) [Compound 309, (2R)-1-[4-[amino(4,5-dichloro-2-hydroxyphenyl)methyl]-4-methylpiperidin-1-yl]-2,3-dihydroxypropan-1-one Trifluoroacetic Acid] |
| < 10 µM | C[C@](O)(c1cc(Cl)c(Cl)cc1O)C1CCNCC1 (single isomer, unassigned; isomer 2) [Compound 26, 4,5-dichloro-2-(1-hydroxy-1-(piperidin-4-yl)ethyl)phenol Isomer 2] |
| < 0.5 µM | N[C@@H](c1cc(Cl)c(Cl)cc1O)C1CCN(C(=O)c2c[nH]c(=O)[nH]c2=O)CC1 [Compound 252, 5-[4-[(R)-amino(4,5-dichloro-2-hydroxyphenyl)methyl]piperidine-1-carbonyl]-1,3-dihydropyrimidine-2,4-dione formic acid] |
| < 30 µM | N[C@H](c1cc(Cl)c(Cl)cc1O)C1C2CCC1CN(C(=O)[C@H](O)CO)C2 (stereo partly drawn) [Compound 314, (2R)-1-[8-[(S)-amino(4,5-dichloro-2-hydroxyphenyl)methyl]-3-azabicyclo[3.2.1]octan-3-yl]-2,3-dihydroxypropan-1-one Trifluoroacetic Acid] |
| < 10 µM | O=C([C@H]1CCNC1)N1CCC[C@@H]([C@@H](O)c2c(O)ccc(Cl)c2Cl)CC1 (single isomer, unassigned; isomer 3) [Compound 323] |
| < 10 µM | N[C@H](c1cc(Cl)c(Cl)cc1O)[C@@H]1CCN(C(=O)[C@H](O)CO)C1 [Compound 310, (2R)-1-[(3R)-3-[(S)-amino(4,5-dichloro-2-hydroxyphenyl)methyl]pyrrolidin-1-yl]-2,3-dihydroxypropan-1-one] |
| < 10 µM | N[C@@H](c1cc(Cl)c(Cl)cc1O)[C@@H]1CCN(C(=O)[C@H](O)CO)C1 [Compound 311, (2R)-1-[(3R)-3-[(R)-amino(4,5-dichloro-2-hydroxyphenyl)methyl]pyrrolidin-1-yl]-2,3-dihydroxypropan-1-one] |
| < 10 µM | N[C@@H](c1cc(Cl)c(Cl)cc1O)[C@H]1CCN(C(=O)[C@H](O)CO)C1 (single isomer, unassigned; isomer 2) [Compound 312] |
